# Like-named read-outs stand apart in the source and are kept apart here.
# Assays:
# [1] = system: Klebsiella species A20468; test: MIC, tube dilution, Klebsiella species A20468; assay type: cell-based; settings: Klebsiella species (K. pneumoniae) A20468; overnight 37° C.; read-out: Minimum Inhibitory Concentration (M.I.C.)
# Text: (§1) Representative compounds of the present invention were subjected to in vitro antibiotic screening against a variety of microorganisms.
# Pr. mirabilis A-9900 = test: MIC, tube dilution, Proteus mirabilis A9900; assay type: cell-based; settings: overnight 37° C.; for MIC: Proteus mirabilis, A9900, Proteus mirabilis A9900, read-out: Minimum Inhibitory Concentration (M.I.C.)
# Text: as §1
# Pr. morganii A-15153 = test: MIC, tube dilution, Proteus morganii A15153; assay type: cell-based; settings: overnight 37° C.; for MIC: Morganella morganii, A15153, Proteus morganii A15153, read-out: Minimum Inhibitory Concentration (M.I.C.)
# Text: as §1
# E. coli A-20341-1 = test: MIC, tube dilution, Escherichia coli A20341-1; assay type: cell-based
# Text: as §1
# K. pneumoniae A-15130 = test: MIC, tube dilution, Klebsiella pneumoniae A15130; assay type: cell-based; settings: overnight 37° C.; for MIC: Klebsiella pneumoniae, A15130, K. pneumoniae A15130, read-out: Minimum Inhibitory Concentration (M.I.C.)
# Text: as §1
# Str. pneumoniae A-9585 = test: MIC, tube dilution, Streptococcus pneumoniae A9585; assay type: cell-based; settings: overnight 37° C., Nutrient Broth; for MIC: Streptococcus pneumoniae, A9585, Str. pneumoniae A9585, read-out: Minimum Inhibitory Concentration (M.I.C.)
# Text: as §1
# Staph. aureus A-9537 = test: MIC, tube dilution, Staphylococcus aureus A9537; assay type: cell-based; settings: overnight 37° C., Nutrient Broth; for MIC: Staphylococcus aureus, A9537, Staph. aureus A9537, read-out: Minimum Inhibitory Concentration (M.I.C.)
# Text: as §1
# Ser. marcescens A-20019 = test: MIC, tube dilution, Serratia marcescens A20019; assay type: cell-based; settings: overnight 37° C.; for MIC: Serratia marcescens, A20019, Serratia marcescens A20019, read-out: Minimum Inhibitory Concentration (M.I.C.)
# Text: as §1
# [2] = system: Staph. aureus A-9537 and 50% serum; test: MIC, tube dilution, Staph. aureus A9537 + 50% serum; assay type: cell-based, Staphylococcus aureus; settings: Staphylococcus aureus, overnight 37° C., read-out: Minimum Inhibitory Concentration (M.I.C.)
# Text: as §1
# E. coli A-15119 = test: MIC, tube dilution, Escherichia coli A15119; assay type: cell-based; settings: overnight 37° C.; for MIC: Escherichia coli, A15119, E. coli A15119, read-out: Minimum Inhibitory Concentration (M.I.C.)
# Text: as §1
# [3] = system: Staph. aureus (Meth-Res) A-15097; test: MIC, tube dilution, Staphylococcus aureus A15097 (Meth-Res); assay type: cell-based; settings: overnight 37° C.; for MIC: Staphylococcus aureus
# Text: as §1
# [4] = system: Staph. aureus (Pen-Res) A-9606; test: MIC, tube dilution, Staphylococcus aureus A9606 (Pen-Res); assay type: cell-based; settings: overnight 37° C.; for MIC: Staphylococcus aureus
# Text: as §1
# Ent. cloacae A-9659 = test: MIC, tube dilution, Enterobacter cloacae A9659; assay type: cell-based; settings: overnight 37° C.; for MIC: Enterobacter cloacae, A9659, Enterobacter cloacae A9659, read-out: Minimum Inhibitory Concentration (M.I.C.)
# Text: as §1
# Str. faecalis A-20688 = test: MIC, tube dilution, Streptococcus faecalis A20688; assay type: cell-based; settings: Enterococcus faecalis, A20688, Str. faecalis A20688; overnight 37° C.; read-out: Minimum Inhibitory Concentration (M.I.C.)
# Text: as §1
# Str. pyogenes A-9604 = test: MIC, tube dilution, Streptococcus pyogenes A9604; assay type: cell-based; settings: Streptococcus pyogenes, A9604, Str. pyogenes A9604; overnight 37° C., Nutrient Broth; read-out: Minimum Inhibitory Concentration (M.I.C.)
# Text: as §1
# Ent. cloacae A-9656 = test: MIC, tube dilution, Enterobacter cloacae A9656; assay type: cell-based; settings: overnight 37° C., read-out: Minimum Inhibitory Concentration (M.I.C.)
# Text: as §1
# [5] = system: Providencia stuartii A21205; test: MIC, tube dilution, Providencia stuartii (Pr. rettgeri) A21205; assay type: cell-based; settings: Providencia stuartii
# Text: as §1
# Pr. vulgaris A-9716 = test: MIC, tube dilution, Proteus vulgaris / Proteus mirabilis A9716; assay type: cell-based, Proteus vulgaris (name changed to Proteus mirabilis); settings: overnight 37° C.; for MIC: Proteus vulgaris
# Text: as §1
# Ps. aeruginosa A-9843A = test: MIC, tube dilution, Pseudomonas aeruginosa A9843A; assay type: cell-based; settings: Pseudomonas aeruginosa, A9843A, read-out: Minimum Inhibitory Concentration (M.I.C.), Pseudomonas aeruginosa A9843A; overnight 37° C.
# Text: as §1
# Ps. aeruginosa A-21213 = test: MIC, tube dilution, Pseudomonas aeruginosa A21213; assay type: cell-based; settings: Pseudomonas aeruginosa A21213; overnight 37° C.; read-out: Minimum Inhibitory Concentration (M.I.C.)
# Text: as §1
# [6] = Staph. aureus A9606 (Pen-Res), read-out: Minimum Inhibitory Concentration (M.I.C.)
# [7] = Enterobacter cloacae, A9656, Enterobacter cloacae A9656
# [8] = A21205, Providencia stuartii (Pr. rettgeri) A21205, overnight 37° C., read-out: Minimum Inhibitory Concentration (M.I.C.)
# [9] = A9716, Proteus vulgaris / Proteus mirabilis A9716, read-out: Minimum Inhibitory Concentration (M.I.C.)
# [10] = Escherichia coli, A203411; E. coli A20341-1; overnight 37° C.; read-out: Minimum Inhibitory Concentration (M.I.C.)
# [11] = read-out: Minimum Inhibitory Concentration (M.I.C.), Staph. aureus A9606 (Pen-Res)
# [12] = A21205, read-out: Minimum Inhibitory Concentration (M.I.C.)
# [13] = A9716, read-out: Minimum Inhibitory Concentration (M.I.C.), Proteus vulgaris / Proteus mirabilis A9716
# [14] = read-out: Minimum Inhibitory Concentration (M.I.C.), Staph. aureus A15097 (Meth-Res)
SMILES,MIC [1],MIC (Pr. mirabilis A-9900),MIC (Pr. morganii A-15153),MIC (K. pneumoniae A-15130),MIC (Str. pneumoniae A-9585),MIC (Staph. aureus A-9537),MIC (Ser. marcescens A-20019),MIC [2],MIC (E. coli A-15119),MIC (Ent. cloacae A-9659),MIC (Str. faecalis A-20688),MIC (Str. pyogenes A-9604),MIC (Ps. aeruginosa A-9843A),MIC (E. coli A-20341-1; [10]),MIC (Ps. aeruginosa A-21213),"MIC [4, 11]",MIC (Ent. cloacae A-9656; Enterobacter cloacae A9656),"MIC [5, 12]",MIC (Pr. vulgaris A-9716; [13]),"MIC [3, 14]",also measured
CC1=C(C(=O)O)N2C(=O)C(C(O)c3ccccc3)C2S1 (centres unmarked) [Example 4],> 125 µg/mL,63 µg/mL,125 µg/mL,> 125 µg/mL,1 µg/mL,8 µg/mL,> 125 µg/mL,> 63 µg/mL,> 125 µg/mL,> 125 µg/mL,125 µg/mL,4 µg/mL,,,,,,,,,"MIC (E. coli A-20341-1; Escherichia coli, A203411, E. coli A20341-1; overnight 37° C.; read-out: Minimum Inhibitory Concentration (M.I.C.)): > 125 µg/mL; MIC ([3]; Staph. aureus A15097 (Meth-Res), read-out: Minimum Inhibitory Concentration (M.I.C.)): 125 µg/mL; MIC [4, 6]: 4 µg/mL; MIC (Ent. cloacae A-9656; [7]): > 125 µg/mL; MIC [5, 8]: 125 µg/mL; MIC (Pr. vulgaris A-9716; [9]): 63 µg/mL"
"CCC1C(=O)N2C(C(=O)[O-])=C(C)S[C@H]12.[Na+] (stereo partly drawn) [1 (cis), Sodium 6-Ethyl-2-methylpenem-3-carboxylate]",> 125 µg/mL,125 µg/mL,> 125 µg/mL,> 125 µg/mL,4 µg/mL,8 µg/mL,> 125 µg/mL,> 63 µg/mL,125 µg/mL,> 125 µg/mL,63 µg/mL,4 µg/mL,> 125 µg/mL,125 µg/mL,> 125 µg/mL,16 µg/mL,> 125 µg/mL,63 µg/mL,63 µg/mL,,Minimum Inhibitory Concentration (M.I.C.) ([3]; Staph. aureus A15097 (Meth-Res)): 63 µg/mL
"O=C(O)C1=C(Cc2cccs2)SC2CC(=O)N12 (centres unmarked) [Preparation 8, 2-(2'-Thienyl)methyl-penem-3-carboxylic Acid]",> 125 µg/mL,0.5 µg/mL,1 µg/mL,32 µg/mL,0.016 µg/mL,< 0.008 µg/mL,32 µg/mL,> 63 µg/mL,1 µg/mL,16 µg/mL,32 µg/mL,0.03 µg/mL,> 125 µg/mL,> 125 µg/mL,> 125 µg/mL,,,,,> 125 µg/mL,"MIC [4, 6]: 4 µg/mL; MIC (Ent. cloacae A-9656; [7]): 16 µg/mL; MIC [5, 8]: 1 µg/mL; MIC (Pr. vulgaris A-9716; [9]): 1 µg/mL"
"CCCCCC1=C(C(=O)[O-])N2C(=O)C[C@H]2S1.[K+] [Preparation 16, Potassium 2-Pentylpenem-3-carboxylate]",> 125 µg/mL,4 µg/mL,16 µg/mL,> 125 µg/mL,,,125 µg/mL,> 63 µg/mL,63 µg/mL,> 125 µg/mL,32 µg/mL,,> 125 µg/mL,> 125 µg/mL,> 125 µg/mL,4 µg/mL,125 µg/mL,16 µg/mL,4 µg/mL,125 µg/mL,Minimum Inhibitory Concentration (M.I.C.) (Pr. mirabilis A-9900; Proteus mirabilis A9900): 8 µg/mL; Minimum Inhibitory Concentration (M.I.C.) (Pr. vulgaris A-9716; Proteus vulgaris / Proteus mirabilis A9716): 8 µg/mL
"CC(=O)OCC1=C(C(=O)[O-])N2C(=O)C[C@H]2S1.[Na+] [Preparation 5, Sodium 2-(Acetoxymethyl)penem-3-carboxylate]",> 125 µg/mL,> 125 µg/mL,> 125 µg/mL,> 125 µg/mL,> 8 µg/mL,125 µg/mL,> 125 µg/mL,> 63 µg/mL,> 125 µg/mL,> 125 µg/mL,> 125 µg/mL,,> 125 µg/mL,> 125 µg/mL,> 125 µg/mL,> 125 µg/mL,> 125 µg/mL,> 125 µg/mL,> 125 µg/mL,> 125 µg/mL,Minimum Inhibitory Concentration (M.I.C.) (Str. pneumoniae A-9585; Str. pneumoniae A9585): 16 µg/mL; Minimum Inhibitory Concentration (M.I.C.) (Staph. aureus A-9537; Staph. aureus A9537): > 125 µg/mL
"O=C([O-])C1=C(c2ccccc2)S[C@@H]2CC(=O)N12.[Na+] [Preparation 7, Sodium 2-Phenylpenem-3-carboxylate]",> 125 µg/mL,4 µg/mL,32 µg/mL,63 µg/mL,,2 µg/mL,32 µg/mL,> 63 µg/mL,4 µg/mL,32 µg/mL,16 µg/mL,,> 125 µg/mL,> 125 µg/mL,> 125 µg/mL,8 µg/mL,125 µg/mL,16 µg/mL,4 µg/mL,63 µg/mL,Minimum Inhibitory Concentration (M.I.C.) (Pr. morganii A-15153; Proteus morganii A15153): 63 µg/mL; Minimum Inhibitory Concentration (M.I.C.) (K. pneumoniae A-15130; K. pneumoniae A15130): 125 µg/mL; Minimum Inhibitory Concentration (M.I.C.) (Ser. marcescens A-20019; Serratia marcescens A20019): 63 µg/mL; Minimum Inhibitory Concentration (M.I.C.) (E. coli A-15119; E. coli A15119): 8 µg/mL; Minimum Inhibitory Concentration (M.I.C.) ([4]; Staph. aureus A9606 (Pen-Res)): 16 µg/mL; Minimum Inhibitory Concentration (M.I.C.) (Ent. cloacae A-9659; Enterobacter cloacae A9659): 63 µg/mL

# Reference: US4272437A, “Antibacterial agents, and 4-thio azetidinone intermediates” (priority 1979, dated 1981)
